The source of these data is patent US20250214962A1, “PYRIDINONE DERIVATIVES AS SELECTIVE CYTOTOXIC AGENTS AGAINST HIV INFECTED CELLS” (Merck Sharp & Dohme LLC, priority 2019, published 2025).

The nature of one experiment: Viking EC50, 50% NHS. The experiment is classed as cell-based. The conditions noted are these: method not described, read-out: Viking EC50_50% NHS.
In experiment [1] the test system is infected PBMCs (VSV-G pseudotyped HIV virus). Put plainly: cells. The note with it: read-out: SMACK EC50_50% NHS. The experiment is classed as cell-based, human.

Where two headings read alike, the source gives them in different places.

Take `CC(F)c1ncn(Cc2ccc(CO)[nH]c2=O)c(=O)c1Oc1cc(Cl)cc(C#N)c1F` (single isomer, unassigned) [Example 32, 5-Chloro-2-Fluoro-3-((4-(1-Fluoroethyl)-1-((6-(Hydroxymethyl)-2-Oxo-1,2-Dihydropyridin-3-Yl)Methyl)-6-Oxo-1,6-Dihydropyrimidin-5-Yl)Oxy)Benzonitrile]: the EC50 in “Viking EC50, 50% NHS” was 18.2 nM; in experiment [1] (Homo sapiens, PBMC) it was 377 nM.

Regarding `CC(F)c1ncn(Cc2ccc(CO)[nH]c2=O)c(=O)c1Oc1cc(Cl)cc(C#N)c1F` (single isomer, unassigned) [Example 33, 5-Chloro-2-Fluoro-3-((4-(1-Fluoroethyl)-1-((6-(Hydroxymethyl)-2-Oxo-1,2-Dihydropyridin-3-Yl)Methyl)-6-Oxo-1,6-Dihydropyrimidin-5-Yl)Oxy)Benzonitrile], the EC50 in “Viking EC50, 50% NHS” was 23.1 nM; in experiment [1], 389 nM.

Consider `CC(O)c1ccc(Cn2cnc(C(F)(F)C(F)F)c(Oc3cc(Cl)cc(C#N)c3F)c2=O)c(=O)[nH]1` (single isomer, unassigned) [Example 34], for which the EC50 in “Viking EC50, 50% NHS” came to 43.1 nM; in experiment [1] (Homo sapiens, PBMC), 270 nM.

As to `COCc1ccc(Cn2cnc(C(F)(F)C(F)F)c(Oc3cc(Cl)cc(C#N)c3F)c2=O)c(=O)[nH]1` [Example 1, 5-Chloro-2-Fluoro-3-((1-((6-(Methoxymethyl)-2-Oxo-1,2-Dihydropyridin-3-Yl)Methyl)-6-Oxo-4-(1,1,2,2-Tetrafluoroethyl)-1,6-Dihydropyrimidin-5-Yl)Oxy)Benzonitrile], the EC50 was found to be 29.6 nM in the experiment “Viking EC50, 50% NHS” and 258 nM in experiment [1] (Homo sapiens, PBMC).

`Cc1cc(C)c(Cn2cnc(C(C)(F)F)c(Oc3cc(Cl)cc(C#N)c3F)c2=O)c(=O)[nH]1` [Example 2, 5-chloro-3-((4-(1,1-difluoroethyl)-1-((4,6-dimethyl-2-oxo-1,2-dihydropyridin-3-yl)methyl)-6-oxo-1,6-dihydropyrimidin-5-yl)oxy)-2-fluorobenzonitrile]: the EC50 in the experiment “Viking EC50, 50% NHS” came out at 37.4 nM; in experiment [1] (Homo sapiens, PBMC), 294 nM.

In the case of `Cc1ccc(Cn2cnc(C(C)(F)F)c(Oc3cc(Cl)cc(C#N)c3F)c2=O)c(=O)[nH]1` [Example 3, 5-chloro-3-((4-(1,1-difluoroethyl)-1-((6-methyl-2-oxo-1,2-dihydropyridin-3-yl)methyl)-6-oxo-1,6-dihydropyrimidin-5-yl)oxy)-2-fluorobenzonitrile], the EC50 was determined as 14.1 nM in the experiment “Viking EC50, 50% NHS” and 87.6 nM in experiment [1] (Homo sapiens, PBMC).

As to `Cc1ccc(Cn2cnc(C(F)(F)F)c(Oc3cc(Cl)cc(C#N)c3F)c2=O)c(=O)[nH]1` [Example 4, 5-chloro-2-fluoro-3-((1-((6-methyl-2-oxo-1,2-dihydropyridin-3-yl)methyl)-6-oxo-4-(trifluoromethyl)-1,6-dihydropyrimidin-5-yl)oxy)benzonitrile], the EC50 stood at 41.1 nM in the experiment “Viking EC50, 50% NHS” and 197 nM in experiment [1] (Homo sapiens, PBMC).

Consider `Cc1cc(C)c(Cn2cnc(C(F)(F)C(F)F)c(Oc3cc(C(F)F)cc(C#N)c3C)c2=O)c(=O)[nH]1` [Example 5, 5-(difluoromethyl)-3-((1-((4,6-dimethyl-2-oxo-1,2-dihydropyridin-3-yl)methyl)-6-oxo-4-(1,1,2,2-tetrafluoroethyl)-1,6-dihydropyrimidin-5-yl)oxy)-2-methylbenzonitrile], for which the EC50 stood at 47.1 nM in the experiment “Viking EC50, 50% NHS” and 161 nM in experiment [1] (Homo sapiens, PBMC).

As for `Cc1cc(C)c(Cn2cnc(C(F)(F)C(F)F)c(Oc3cc(Cl)cc(C#N)c3)c2=O)c(=O)[nH]1` [Example 6, 3-chloro-5-((1-((4,6-dimethyl-2-oxo-1,2-dihydropyridin-3-yl)methyl)-6-oxo-4-(1,1,2,2-tetrafluoroethyl)-1,6-dihydropyrimidin-5-yl)oxy)benzonitrile], the EC50 in “Viking EC50, 50% NHS” was 37.5 nM; in experiment [1] (Homo sapiens, PBMC), 263 nM.

Regarding `Cc1cc(C)c(Cn2cnc(C(F)(F)C(F)F)c(Oc3cc(Br)cc(C#N)c3)c2=O)c(=O)[nH]1` [Example 7, 3-bromo-5-((1-((4,6-dimethyl-2-oxo-1,2-dihydropyridin-3-yl)methyl)-6-oxo-4-(1,1,2,2-tetrafluoroethyl)-1,6-dihydropyrimidin-5-yl)oxy)benzonitrile], the EC50 in “Viking EC50, 50% NHS” was found to be 29.1 nM; in experiment [1] (Homo sapiens, PBMC), 433 nM.

As for `N#Cc1cc(Cl)cc(Oc2c(C(F)(F)C(F)F)ncn(Cc3ccc[nH]c3=O)c2=O)c1Cl` [Example 8, 2,5-dichloro-3-((6-oxo-1-((2-oxo-1,2-dihydropyridin-3-yl)methyl)-4-(1,1,2,2-tetrafluoroethyl)-1,6-dihydropyrimidin-5-yl)oxy)benzonitrile], the EC50 in “Viking EC50, 50% NHS” stood at 26.9 nM; in experiment [1] (Homo sapiens, PBMC) it was 495 nM.

With `Cc1ccc(Cn2cnc(C(F)(F)C(F)F)c(Oc3cc(F)cc(C#N)c3C)c2=O)c(=O)[nH]1` [Example 9], the EC50 in the experiment “Viking EC50, 50% NHS” stood at 15.7 nM; in experiment [1] (Homo sapiens, PBMC), 281 nM.

Regarding `Cc1cc(C)c(Cn2cnc(C(F)(F)C(F)F)c(Oc3c(C)cc(C#N)cc3C)c2=O)c(=O)[nH]1` [Example 10, 4-((1-((4,6-dimethyl-2-oxo-1,2-dihydropyridin-3-yl)methyl)-6-oxo-4-(1,1,2,2-tetrafluoroethyl)-1,6-dihydropyrimidin-5-yl)oxy)-3,5-dimethylbenzonitrile], in experiment [1] (Homo sapiens, PBMC), the EC50 was found to be 246 nM.

Regarding `Cc1c(C#N)cc(C(F)F)cc1Oc1c(C(F)(F)C(F)F)ncn(Cc2cc(Br)c[nH]c2=O)c1=O` [Example 11, 3-((1-((5-bromo-2-oxo-1,2-dihydropyridin-3-yl)methyl)-6-oxo-4-(1,1,2,2-tetrafluoroethy)-1,6-dihydropyrimidin-5-yl)oxy)-5-(difluoromethyl)-2-methylbenzonitrile], the EC50 in experiment [1] (Homo sapiens, PBMC) worked out at 402 nM.

Consider `Cc1c(C#N)cc(Cl)cc1Oc1c(C(C)F)ncn(Cc2ccc(-c3cc[nH]n3)[nH]c2=O)c1=O` (centres unmarked) [Example 12, 5-chloro-3-((4-(1-fluoroethyl)-6-oxo-1-((2-oxo-6-(1H-pyrazol-3-yl)-1,2-dihydropyridin-3-yl)methyl)-1,6-dihydropyrimidin-5-yl)oxy)-2-methylbenzonitrile], for which the EC50 in “Viking EC50, 50% NHS” was 127 nM; in experiment [1] (Homo sapiens, PBMC), 374 nM.

For the compound `Cc1c(C#N)cc(Cl)cc1Oc1c(C(F)(F)F)ncn(Cc2ccc(-c3cc[nH]n3)[nH]c2=O)c1=O` [Example 13, 5-chloro-2-methyl-3-((6-oxo-1-((2-oxo-6-(1H-pyrazol-3-yl)-1,2-dihydropyridin-3-yl)methyl)-4-(trifluoromethyl)-1,6-dihydropyrimidin-5-yl)oxy)benzonitrile], the EC50 in “Viking EC50, 50% NHS” is 343 nM; in experiment [1] (Homo sapiens, PBMC) it was 296 nM.

With `Cc1c(C#N)cc(C(F)F)cc1Oc1c(C(F)(F)C(F)F)ncn(Cc2cc(F)c[nH]c2=O)c1=O` [Example 14, 5-(Difluoromethyl)-3-((1-((5-Fluoro-2-Oxo-1,2-Dihydropyridin-3-Yl)Methyl)-6-Oxo-4-(1,1,2,2-Tetrafluoroethyl)-1,6-Dihydropyrimidin-5-Yl)Oxy)-2-Methylbenzonitrile], the EC50 in the experiment “Viking EC50, 50% NHS” is 29.5 nM; in experiment [1] (Homo sapiens, PBMC), 101 nM.

With `Cc1cc(C#N)cc(Oc2c(C(C)(F)F)ncn(Cc3c(C)cc(C)[nH]c3=O)c2=O)c1` [Example 15, 3-((4-(1,1-difluoroethyl)-1-((4,6-dimethyl-2-oxo-1,2-dihydropyridin-3-yl)methyl)-6-oxo-1,6-dihydropyrimidin-5-yl)oxy)-5-methylbenzonitrile], the EC50 in the experiment “Viking EC50, 50% NHS” worked out at 21.9 nM; in experiment [1] (Homo sapiens, PBMC), 384 nM.

As to `Cc1c(C#N)cc(C(F)F)cc1Oc1c(C(F)(F)F)ncn(Cc2ccc[nH]c2=O)c1=O` [Example 16, 5-(difluoromethyl)-2-methyl-3-((6-oxo-1-((2-oxo-1,2-dihydropyridin-3-yl)methyl)-4-(trifluoromethyl)-1,6-dihydropyrimidin-5-yl)oxy)benzonitrile], the EC50 worked out at 7.08 nM in the experiment “Viking EC50, 50% NHS” and 268 nM in experiment [1] (Homo sapiens, PBMC).

For the compound `Cc1c(C#N)cc(C(F)F)cc1Oc1c(C(F)(F)C(F)F)ncn(Cc2ccc[nH]c2=O)c1=O` [Example 17, 5-(difluoromethyl)-2-methyl-3-((6-oxo-1-((2-oxo-1,2-dihydropyridin-3-yl)methyl)-4-(1,1,2,2-tetrafluoroethyl)-1,6-dihydropyrimidin-5-yl)oxy)benzonitrile], the EC50 in the experiment “Viking EC50, 50% NHS” came out at 17.1 nM; in experiment [1] (Homo sapiens, PBMC), 218 nM.

For `Cc1c(C#N)cc(Cl)cc1Oc1c(C(F)(F)F)ncn(Cc2cc(F)c[nH]c2=O)c1=O` [Example 19, 5-chloro-3-((1-((5-fluoro-2-oxo-1,2-dihydropyridin-3-yl)methyl)-6-oxo-4-(trifluoromethyl)-1,6-dihydropyrimidin-5-yl)oxy)-2-methylbenzonitrile], the EC50 is 30.7 nM in the experiment “Viking EC50, 50% NHS” and 376 nM in experiment [1] (Homo sapiens, PBMC).

For `N#Cc1cc(Cl)cc(Oc2c(C(F)(F)C(F)(F)F)ncn(Cc3cc(F)c[nH]c3=O)c2=O)c1F` [Example 20, 5-chloro-2-fluoro-3-((1-((5-fluoro-2-oxo-1,2-dihydropyridin-3-yl)methyl)-6-oxo-4-(perfluoroethyl)-1,6-dihydropyrimidin-5-yl)oxy)benzonitrile], the EC50 worked out at 83.7 nM in the experiment “Viking EC50, 50% NHS” and 99 nM in experiment [1] (Homo sapiens, PBMC).

On to `Cc1ccc(Cn2cnc(C(F)(F)C(F)(F)F)c(Oc3cc(Cl)cc(C#N)c3F)c2=O)c(=O)[nH]1` [Example 21, 5-Chloro-2-Fluoro-3-((1-((6-Methyl-2-Oxo-1,2-Dihydropyridin-3-Yl)Methyl)-6-Oxo-4-(Perfluoroethyl)-1,6-Dihydropyrimidin-5-Yl)Oxy)Benzonitrile], for which the EC50 was found to be 76.8 nM in the experiment “Viking EC50, 50% NHS” and 152 nM in experiment [1] (Homo sapiens, PBMC).

For the compound `Cc1ccc(Cn2cnc(C(F)(F)C(F)F)c(Oc3cc(C(F)F)cc(C#N)c3C)c2=O)c(=O)[nH]1` [Example 22, 5-(difluoromethyl)-2-methyl-3-((1-((6-methyl-2-oxo-1,2-dihydropyridin-3-yl)methyl)-6-oxo-4-(1,1,2,2-tetrafluoroethyl)-1,6-dihydropyrimidin-5-yl)oxy)benzonitrile], the EC50 in the experiment “Viking EC50, 50% NHS” was determined as 48.9 nM; in experiment [1] (Homo sapiens, PBMC), 131 nM.

Consider `Cc1c(C#N)cc(C(F)F)cc1Oc1c(C(F)(F)C(F)F)ncn(Cc2ccc(CCCO)[nH]c2=O)c1=O` [Example 28, 5-(difluoromethyl)-3-((1-((6-(3-hydroxypropyl)-2-oxo-1,2-dihydropyridin-3-yl)methyl)-6-oxo-4-(1,1,2,2-tetrafluoroethyl)-1,6-dihydropyrimidin-5-yl)oxy)-2-methylbenzonitrile], for which, in experiment [1] (Homo sapiens, PBMC), the EC50 stood at 73.8 nM.
